Results as given in ChEMBL document CHEMBL5046293 (J Med Chem, 2022).

What was measured:
[1] = Cytotoxicity against human BLEC monolayers at 50 uM incubated for 1 hr; format: toxicity, cell-based; conditions: brain-like endothelial cells
[2] = Stability of compound in 0.01 M PBS buffer at 50 uM measured after 52 hrs by LC-MS analysis (reference value: 99.2 %); format: physicochemical; conditions: read-out: Stability
[3] = Stability of compound in 0.01 M PBS buffer at 50 uM measured after 4 hrs by LC-MS analysis (reference value: 99.2 %); format: physicochemical; conditions: read-out: Stability
[4] = Stability of compound in 0.01 M PBS buffer at 50 uM measured after 4 hrs by LC-MS analysis (reference value: 98.7 %); format: physicochemical; conditions: read-out: Stability
[5] = Stability of compound in 0.01 M PBS buffer at 50 uM measured after 52 hrs by LC-MS analysis (reference value: 98.7 %); format: physicochemical; conditions: read-out: Stability

SMILES	Activity [1]	also measured
OC[C@H]1O[C@@H](OCCCCc2cn(CCCc3ccc(O)c(/C=N/O)n3)nn2)[C@H](O)[C@@H](O)[C@@H]1O	Non-Toxic	remaining at 52 h, 50 µM [2]: 90.9%; remaining at 4 h, 50 µM [3]: 96.7%
C#CCCCCO[C@@H]1O[C@H](CO)[C@@H](O)[C@H](O)[C@H]1O	Non-Toxic	
OC[C@H]1O[C@@H](OCCCCCc2ccc(O)c(/C=N/O)n2)[C@H](O)[C@@H]1O	Non-Toxic	
C#CCCCCO[C@@H]1O[C@H](CO)[C@@H](O)[C@H]1O	Non-Toxic	
OC[C@H]1O[C@H](OCCCCc2cn(CCCCc3ccc(O)c(/C=N/O)n3)nn2)[C@H](O)[C@@H](O)[C@@H]1O	Non-Toxic	
OC[C@H]1O[C@@H](OCCCCc2cn(CCCCc3ccc(O)c(/C=N/O)n3)nn2)[C@H](O)[C@@H]1O	Non-Toxic	
OC[C@H]1O[C@@H](OCCCCc2ccc(O)c(/C=N/O)n2)[C@H](O)[C@@H](O)[C@@H]1O	Non-Toxic	
Cn1cc(CCCCO[C@H]2O[C@H](CO)[C@@H](O)[C@H](O)[C@H]2O)nn1	Non-Toxic	
OC[C@H]1O[C@@H](OCCCc2ccc(O)c(/C=N/O)n2)[C@H](O)[C@@H](O)[C@@H]1O	Non-Toxic	remaining at 4 h, 50 µM [4]: 97.8%; remaining at 52 h, 50 µM [5]: 91.4%
Cn1cc(CCCCOC[C@H]2O[C@@H](O)[C@H](O)[C@@H](O)[C@@H]2O)nn1	Non-Toxic	
Cn1cc(CCCCO[C@@H]2O[C@H](CO)[C@@H](O)[C@H](O)[C@H]2O)nn1	Non-Toxic	
C#CCCO[C@@H]1O[C@H](CO)[C@@H](O)[C@H](O)[C@H]1O	Non-Toxic	
OC[C@H]1O[C@@H](OCCCCc2cn(CCCCc3ccc(O)c(/C=N/O)n3)nn2)[C@H](O)[C@@H](O)[C@@H]1O	Non-Toxic	
Cn1cc(CCCCO[C@@H]2O[C@H](CO)[C@@H](O)[C@H]2O)nn1	Non-Toxic	
Cn1cc(CCO[C@@H]2O[C@H](CO)[C@@H](O)[C@H](O)[C@H]2O)nn1	Non-Toxic	
C#CCCCCO[C@H]1O[C@H](CO)[C@@H](O)[C@H]1O	Non-Toxic	
